Measured values: patent US20190374512A1, “COMPOUNDS FOR TREATMENT OF PANCREATIC CANCER” (UNIVERSITY OF TENNESSEE RESEARCH FOUNDATION, priority 2018, published 2019)

Tested on: PC-3/Txr tumors
Experiment: PC-3/Txr tumor growth inhibition, oral dosing
Settings: in vivo

Structure (SMILES): CC(=O)O[C@@]12CO[C@@H]1C[C@H](O)[C@@]1(C)C(=O)[C@H](O)C3=C(C)[C@@H](OC(=O)[C@H](O)[C@@H](NC(=O)OC(C)(C)C)c4ccccc4)C[C@@](O)([C@@H](OC(=O)c4ccccc4)[C@H]21)C3(C)C [docetaxel]
- efficacy in PC-3/Txr tumors: lack of efficacy
